20 compounds from patent EP2582674B1 (Cymabay Therapeutics, Inc., priority 2010, dated 2011) can be followed below.

Assay [1] relates to C57BL/6J mice. The experiment in a line: Intra peritoneal glucose tolerance test (IPGTT). The assay is classed as in vivo. To be noted: 30 mg/kg oral gavage 30 min before 2g/kg glucose intra peritoneally, overnight fasted male C57BL/6J mice, incremental AUC of glucose excursion vs vehicle; for inhibition in vivo at 30 mg/kg: Mus musculus, 2 h, read-out: % reduction IPGTT at 30mg/kg. The method, then:
(§1) 8-10 week old male C57BL/6J mice (Harlan) were maintained on regular chow diet from Harlan (2018 Teklad Global). On the day before the experiment mice were fasted overnight, then randomized into groups (n=10-15) to receive the tested GPR120 agonist at doses ranging from 100mg/kg or the vehicle (1% CMC, 2% TWEEN 80). Compounds were delivered orally via gavage at 10mL/kg. Blood glucose levels were measured by glucometer (Ascensia Elite XL, Bayer) at time -30 minutes before administration of compound. Blood glucose was measured again after 30 minutes (at time 0), and then the mice were dosed intra peritoneally with 2g/kg glucose at 10mL/kg. Blood glucose measurements were taken 20, 40, 60, 90 and 120 minutes after glucose administration, by glucometer (Ascensia Elite XL, Bayer).
(§2) Glucose levels were plotted against time, and the incremental area under the curve (AUC) of the glucose excursion was determined from time 0 using Graphpad Prism 5.01. Outliers were excluded using Tukey's box plot outlier test, and statistical significance of differences in AUC of compound treatment compared to vehicle was determined by non-parametric Kruskal-Wallis test with Dunn's post test.
The compounds were tested at 30 mg/kg and the levels of blood glucose were determined in the presence and absence of the tested compounds. The percentage of glucose reduction is reported. The tested compounds were selected as Examples from the exemplified compounds. […]

The target in another assay is T1, human GPR120 (Homo sapiens, UniProt Q5NUL3).
T1 construct: host or cells: HEK293 cells co-expressing Gqi5
T1 sequence (Q5NUL3 1-361): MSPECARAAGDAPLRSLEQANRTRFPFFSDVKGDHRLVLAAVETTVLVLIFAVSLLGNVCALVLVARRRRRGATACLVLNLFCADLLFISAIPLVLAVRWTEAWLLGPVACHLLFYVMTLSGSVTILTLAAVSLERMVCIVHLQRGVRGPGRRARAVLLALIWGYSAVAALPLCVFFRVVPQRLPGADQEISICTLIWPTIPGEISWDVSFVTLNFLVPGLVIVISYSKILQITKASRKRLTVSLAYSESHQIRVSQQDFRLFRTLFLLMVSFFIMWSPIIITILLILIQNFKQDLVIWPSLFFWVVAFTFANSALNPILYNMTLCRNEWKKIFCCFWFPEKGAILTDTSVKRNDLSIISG
Kind of assay: Intracellular Ca2+ assay in human GPR120 stable cell line (FLIPR Calcium 4 dye, Flexstation). The format is cell-based. To be noted: HEK293 cells co-expressing Gqi5; for activity at 5 µM: HEK293, % activity at 5 µM compared to the maximal activity of GW9508 at 6.7 µM (=100%), read-out: %Activity (GW9508 Reference Compound); for activity at 2.5 µM: HEK293, % activity at 2.5 µM compared to the maximal activity of the compound of Example 25 at 2.5 µM (=100%), read-out: % Activity (Ex. 25 Reference Compound).

Assay [2] deals with C57BL/6J mice. The experiment in a line: Oral glucose tolerance test. The format is in vivo. To be noted: 6 h fasted male C57BL/6J mice, incremental AUC vs vehicle; for % reduction AUC glucose excursion at 100mg/kg: 100 mg/kg oral gavage 30 min before 3g/kg oral glucose; for % reduction AUC glucose excursion: Sitagliptin at 1mg/kg, 3g/kg oral glucose. The method, then:
as §1, with “day of” for “day before”, “fasted for 6 hours,” for “fasted overnight,”, “dosed orally” for “dosed intra peritoneally”, “with 3g/kg” for “with 2g/kg”
as §2
Tables 2 and 3 below show the mean percentage inhibition of the glucose excursion for the fifteen animals tested in each group. The compounds were tested at 100 mg/kg and the levels of blood glucose were determined in the presence and absence of the tested compounds. The percentage of glucose reduction is reported. The tested compounds were selected as examples from the exemplified compounds. […]

Turning to “3-(4-((5-chloro-2,2-dimethyl-2,3-dihydrobenzofuran-7-yl)methoxy)-3-fluorophenyl)-2-methylpropanoic acid [Example 10]”, the “% reduction IPGTT at 30mg/kg” value in the assay on C57BL/6J mice [1] stood at 30.7%. Besides, the “%Activity (GW9508 Reference Compound)” value at human GPR120 (% activity at 5 µM compared to the maximal activity of GW9508 at 6.7 µM (=100%)) amounted to 106.7955%. Besides, the “% reduction AUC glucose excursion at 100mg/kg” value with C57BL/6J mice [2] (Table 2) is recorded as 58.1%.
As to `CC1(C)Cc2cc(Cl)cc(COc3c(F)cc(C4CC4C(=O)O)cc3F)c2O1` (racemic) [Example 35, 2-(4-((5-chloro-2,2-dimethyl-2,3-dihydrobenzofuran-7-yl)methoxy)-3,5-difluorophenyl)cyclopropanecarboxylic acid], the activity at 5 µM at human GPR120 was determined as 60.1%. Further, the “% reduction AUC glucose excursion at 100mg/kg” value in the assay on C57BL/6J mice [2] (Table 3) amounted to 27.7%.
Turning to `CC1(C)Cc2cc(F)cc(COc3ccc(C4CC4C(=O)O)cc3)c2O1` (racemic) [Example 131 (racemic), 2-(4-((5-fluoro-2,2-dimethyl-2,3-dihydrobenzofuran-7-yl)methoxy)phenyl) cyclopropanecarboxylic acid], the inhibition in vivo at 30 mg/kg in the assay on C57BL/6J mice [1] came out at 23.1%.
`CC(Cc1ccc(OCc2cc(Cl)cc3c2OC(C)(C)C3)c(C(F)(F)F)c1)C(=O)O` (stereo not drawn) [Example 9, 3-(4-((5-chloro-2,2-dimethyl-2,3-dihydrobenzofuran-7-yl)methoxy)-3-(trifluoromethyl)phenyl)-2-methylpropanoic acid]: the inhibition in vivo at 30 mg/kg in the assay on C57BL/6J mice [1] turned out to be 19.8%. At human GPR120, the activity at 5 µM was found to be 113%.
For the compound `CC(Cc1ccc(OCc2cc(Cl)cc3c2OC(C)(C)C3)cc1)C(=O)O` (stereo not drawn) [Example 13], in the assay on C57BL/6J mice [2] (Table 2), the “% reduction AUC glucose excursion at 100mg/kg” value was found to be 61.9%.
In the case of `CC(Cc1ccc(OCc2cc(F)cc3c2OC(C)(C)C3)cc1)C(=O)O` (stereo not drawn) [Example 16, 3-(4-((5-fluoro-2,2-dimethyl-2,3-dihydrobenzofuran-7-yl)methoxy)phenyl)-2-methylpropanoic acid], the inhibition in vivo at 30 mg/kg in the assay on C57BL/6J mice [1] came out at 19.4%. Also, at human GPR120, the activity at 5 µM was found to be 111%. For the same compound, the “% reduction AUC glucose excursion at 100mg/kg” value in the assay on C57BL/6J mice [2] (Table 3) is 52.4%.
Regarding `CC1(C)Cc2cc(Cl)cc(COc3ccc4c(c3)CCC4CC(=O)O)c2O1` (stereo not drawn) [Example 36, 2-(5-((5-chloro-2,2-dimethyl-2,3-dihydrobenzofuran-7-yl)methoxy)-2,3-dihydro-1H-inden-1-yl)acetic acid], on human GPR120, the activity at 5 µM was determined as 123%. Also, in the assay on C57BL/6J mice [2] (Table 3), the “% reduction AUC glucose excursion at 100mg/kg” value is recorded as 33.6%.
Consider `COc1cc(OCc2cc(F)cc3c2OC(C)(C)C3)ccc1CCC(=O)O` [Example 50, 3-(4-((5-fluoro-2,2-dimethyl-2,3-dihydrobenzofuran-7-yl)methoxy)-2-methoxyphenyl)propanoic acid], for which, in the assay with C57BL/6J mice [1], the inhibition in vivo at 30 mg/kg was found to be 26.2%. Besides, the activity at 2.5 µM on human GPR120 came out at 130%.
Take `CC1(C)Cc2cc(Cl)cc(COc3ccc(CCC(=O)O)c4c3CCC4)c2O1` [Example 64, 3-(7-((5-chloro-2,2-dimethyl-2,3-dihydrobenzofuran-7-yl)methoxy)-2,3-dihydro-1H-inden-4-yl)propanoic acid]: in the assay on C57BL/6J mice [1], the inhibition in vivo at 30 mg/kg is 24.9%.
For `C[C@H](Cc1ccc(OCc2cc(F)cc3c2OC(C)(C)C3)cc1)C(=O)O` [Example 65, (R)-3-(4-((5-fluoro-2,2-dimethyl-2,3-dihydrobenzofuran-7-yl)methoxy)phenyl)-2-methylpropanoic acid], the inhibition in vivo at 30 mg/kg with C57BL/6J mice [1] was 22.2%. Further, the activity at 2.5 µM on human GPR120 came out at 141%.
In the case of `CC(Cc1ccc(OCc2cc(Cl)cc3c2OC(C)(C)C3=O)c(F)c1)C(=O)O` (stereo not drawn) [Example 77, 3-(4-((5-chloro-2,2-dimethyl-3-oxo-2,3-dihydrobenzofuran-7-yl)methoxy)-3-fluorophenyl)-2-methylpropanoic acid], the inhibition in vivo at 30 mg/kg in the assay on C57BL/6J mice [1] came to 10.4%. The activity at 2.5 µM on human GPR120 was 110%.
For the compound `CC1(C)Cc2cc(F)cc(COc3ccc(CCC(=O)O)cc3)c2O1` [Example 132, 3-(4-((5-fluoro-2,2-dimethyl-2,3-dihydrobenzofuran-7-yl)methoxy)phenyl)propanoic acid], in the assay on C57BL/6J mice [1], the inhibition in vivo at 30 mg/kg came out at 6.5%.
For `CCc1cc(OCc2cc(F)cc3c2OC(C)(C)C3)ccc1CCC(=O)O` [Example 134, 3-(2-ethyl-4-((5-fluoro-2,2-dimethyl-2,3-dihydrobenzofuran-7-yl)methoxy)phenyl)propanoic acid], in the assay with C57BL/6J mice [1], the inhibition in vivo at 30 mg/kg is 30.2%. The activity at 2.5 µM on human GPR120 amounted to 151%.
For `C[C@H](Cc1ccc(OCc2cc(Cl)cc3c2OC(C)(C)C3)c(F)c1)C(=O)O` [Example 141, (R)-3-(4-((5-chloro-2,2-dimethyl-2,3-dihydrobenzofuran-7-yl)methoxy)-3-fluorophenyl)-2-methylpropanoic acid] the same measures were 30.6% and 143%.
As for `C[C@@H](Cc1ccc(OCc2cc(Cl)cc3c2OC(C)(C)C3)c(F)c1)C(=O)O` [Example 142, (S)-3-(4-((5-chloro-2,2-dimethyl-2,3-dihydrobenzofuran-7-yl)methoxy)-3-fluorophenyl)-2-methylpropanoic acid], in the assay on C57BL/6J mice [1], the inhibition in vivo at 30 mg/kg came to 36.2%.
Turning to `CC1(C)Cc2cc(F)cc(COc3ccc4c(c3)CC[C@@H]4CC(=O)O)c2O1` [Example 178, (R)-2-(5-((5-fluoro-2,2-dimethyl-2,3-dihydrobenzofuran-7-yl)methoxy)-2,3-dihydro-1H-inden-1-yl)acetic acid], the inhibition in vivo at 30 mg/kg with C57BL/6J mice [1] stood at 16.3%. Moreover, the activity at 2.5 µM on human GPR120 stood at 106%.
For `Cc1c(CCC(=O)O)ccc(OCc2cc(F)cc3c2OC(C)(C)C3)c1C` [Example 208, 3-(4-((5-fluoro-2,2-dimethyl-2,3-dihydrobenzofuran-7-yl)methoxy)-2,3-dimethylphenyl)propanoic acid] the same measures were 41.7% and 147%.
The matching figures for `Cc1c(CCC(=O)O)ccc(OCc2cc(Cl)cc3c2OC(C)(C)C3)c1C` [Example 209, 3-(4-((5-chloro-2,2-dimethyl-2,3-dihydrobenzofuran-7-yl)methoxy)-2,3-dimethylphenyl)propanoic acid]: 43.6% and 142%.
As for `CCOc1cc(OCc2cc(F)cc3c2OC(C)(C)C3)ccc1CCC(=O)O` [Example 268, 3-(2-ethoxy-4-((5-fluoro-2,2-dimethyl-2,3-dihydrobenzofuran-7-yl)methoxy)phenyl)propanoic acid], the inhibition in vivo at 30 mg/kg with C57BL/6J mice [1] stood at 23%.
With `N[C@@H](CC(=O)N1CCn2c(nnc2C(F)(F)F)C1)Cc1cc(F)c(F)cc1F` [Sitagliptin, sitagliptin, reference compound], the “% reduction AUC glucose excursion” value with C57BL/6J mice [2] (Table 2) is given as 58.6%; in the assay with C57BL/6J mice [2] (Table 3) it was 48.6%.
